Measured values: the NIST ThermoML archive (doi:10.1021/je900691n)

Experiment: xn = mol fraction of the nth substance listed
Conditions: Liquid, Pycnometric method

COC(=O)OC [dimethyl carbonate] + O=C=O
mass density [kg/m3]
Conditions | 308.15 K | 313.15 K
6160 kPa, x1 = 0.1484 | 926 | –
6420 kPa, x1 = 0.118 | 904 | –
6750 kPa, x1 = 0.086 | 864 | –
6760 kPa, x1 = 0.1484 | 931 | –
6780 kPa, x1 = 0.1484 | – | 905
6900 kPa, x1 = 0.118 | 909 | –
7020 kPa, x1 = 0.118 | – | 880
7160 kPa, x1 = 0.0481 | 787 | –
7260 kPa, x1 = 0.1484 | 936 | –
7280 kPa, x1 = 0.1484 | – | 909
7340 kPa, x1 = 0.086 | – | 834
7500 kPa, x1 = 0.118 | – | 886
7520 kPa, x1 = 0.0242 | 697 | –
7620 kPa, x1 = 0.0481 | 800 | –
7630 kPa, x1 = 0.0242 | 705 | –
7680 kPa, x1 = 0.118 | 917 | –
7730 kPa, x1 = 0.1484 | 939 | –
7780 kPa, x1 = 0.0242 | 718 | –
7780 kPa, x1 = 0.1484 | – | 914
7850 kPa, x1 = 0.0481 | – | 740
7940 kPa, x1 = 0.086 | 881 | –
7990 kPa, x1 = 0.0242 | 731 | –
8050 kPa, x1 = 0.0481 | – | 748
8050 kPa, x1 = 0.118 | – | 893
8200 kPa, x1 = 0.118 | 922 | –
8220 kPa, x1 = 0.0242 | – | 606
8230 kPa, x1 = 0.0242 | 744 | –
8230 kPa, x1 = 0.0481 | 816 | –
8250 kPa, x1 = 0.0242 | – | 613
8250 kPa, x1 = 0.1484 | 943 | –
8260 kPa, x1 = 0.0481 | – | 757
8290 kPa, x1 = 0.0242 | – | 622
8290 kPa, x1 = 0.1484 | – | 918
8350 kPa, x1 = 0.086 | – | 852
8380 kPa, x1 = 0.0242 | – | 636
8480 kPa, x1 = 0.0242 | 755 | –
8490 kPa, x1 = 0.0242 | – | 650
8510 kPa, x1 = 0.0481 | – | 767
8590 kPa, x1 = 0.0242 | – | 665
8730 kPa, x1 = 0.086 | 890 | –
8740 kPa, x1 = 0.0481 | 827 | –
8760 kPa, x1 = 0.0242 | – | 681
8760 kPa, x1 = 0.1484 | – | 922
8780 kPa, x1 = 0.1484 | 947 | –
8790 kPa, x1 = 0.086 | – | 859
8870 kPa, x1 = 0.0242 | 770 | –
8920 kPa, x1 = 0.0242 | – | 692
8930 kPa, x1 = 0.0481 | – | 780
9000 kPa, x1 = 0.118 | – | 903
9030 kPa, x1 = 0.118 | 929 | –
9110 kPa, x1 = 0.0242 | – | 705
9180 kPa, x1 = 0.0242 | 780 | –
9250 kPa, x1 = 0.0481 | 837 | –
9250 kPa, x1 = 0.086 | – | 865
9250 kPa, x1 = 0.1484 | – | 926
9260 kPa, x1 = 0.1484 | 950 | –
9420 kPa, x1 = 0.0242 | – | 721
9480 kPa, x1 = 0.0481 | – | 795
9630 kPa, x1 = 0.0242 | – | 731
9630 kPa, x1 = 0.086 | 900 | –
9640 kPa, x1 = 0.0242 | 792 | –
9650 kPa, x1 = 0.118 | – | 910
9670 kPa, x1 = 0.118 | 935 | –
9690 kPa, x1 = 0.0481 | 844 | –
9720 kPa, x1 = 0.086 | – | 871
9740 kPa, x1 = 0.1484 | 953 | –
9770 kPa, x1 = 0.1484 | – | 930
9920 kPa, x1 = 0.0242 | 799 | –
9960 kPa, x1 = 0.0242 | – | 744
9960 kPa, x1 = 0.0481 | – | 807
10120 kPa, x1 = 0.0481 | 852 | –
10130 kPa, x1 = 0.086 | 905 | 876
10180 kPa, x1 = 0.0242 | 806 | –
10230 kPa, x1 = 0.1484 | 956 | –
10240 kPa, x1 = 0.1484 | – | 934
10280 kPa, x1 = 0.0242 | – | 755
10300 kPa, x1 = 0.118 | – | 916
10420 kPa, x1 = 0.0481 | – | 816
10530 kPa, x1 = 0.0481 | 858 | –
10580 kPa, x1 = 0.0242 | – | 765
10600 kPa, x1 = 0.0242 | 814 | –
10600 kPa, x1 = 0.118 | 942 | –
10740 kPa, x1 = 0.1484 | – | 937
10770 kPa, x1 = 0.1484 | 960 | –
10870 kPa, x1 = 0.086 | – | 885
10930 kPa, x1 = 0.086 | 913 | –
10980 kPa, x1 = 0.0242 | – | 775
11010 kPa, x1 = 0.0242 | 822 | –
11010 kPa, x1 = 0.0481 | – | 827
11010 kPa, x1 = 0.118 | – | 922
11080 kPa, x1 = 0.0481 | 865 | –
11120 kPa, x1 = 0.086 | – | 888
11180 kPa, x1 = 0.118 | 946 | –
11230 kPa, x1 = 0.1484 | 962 | –
11280 kPa, x1 = 0.1484 | – | 941
11290 kPa, x1 = 0.0242 | 828 | –
11340 kPa, x1 = 0.086 | 917 | –
11400 kPa, x1 = 0.0242 | – | 785
11430 kPa, x1 = 0.0481 | – | 834
11500 kPa, x1 = 0.0481 | 871 | –
11550 kPa, x1 = 0.118 | – | 927
11710 kPa, x1 = 0.086 | – | 893
11740 kPa, x1 = 0.0242 | – | 793
11740 kPa, x1 = 0.1484 | 966 | –
11750 kPa, x1 = 0.0242 | 836 | –
11770 kPa, x1 = 0.1484 | – | 944
11800 kPa, x1 = 0.086 | 921 | –
11950 kPa, x1 = 0.0481 | – | 842
12020 kPa, x1 = 0.0242 | 839 | –
12030 kPa, x1 = 0.118 | – | 930
12040 kPa, x1 = 0.0481 | 878 | –
12080 kPa, x1 = 0.0242 | – | 801
12130 kPa, x1 = 0.086 | – | 898
12210 kPa, x1 = 0.086 | 924 | –
12230 kPa, x1 = 0.1484 | 969 | –
12300 kPa, x1 = 0.118 | 954 | –
12330 kPa, x1 = 0.1484 | – | 948
12420 kPa, x1 = 0.0242 | 846 | –
12450 kPa, x1 = 0.0481 | – | 849
12520 kPa, x1 = 0.0242 | – | 809
12530 kPa, x1 = 0.0481 | 883 | –
12700 kPa, x1 = 0.086 | – | 903
12700 kPa, x1 = 0.118 | – | 935
12740 kPa, x1 = 0.1484 | 971 | –
12780 kPa, x1 = 0.0242 | 852 | –
12850 kPa, x1 = 0.086 | 929 | –
12970 kPa, x1 = 0.0481 | 888 | –
13270 kPa, x1 = 0.1484 | 975 | –
13350 kPa, x1 = 0.086 | 934 | –
13660 kPa, x1 = 0.0481 | 895 | –
13820 kPa, x1 = 0.1484 | 978 | –
13850 kPa, x1 = 0.086 | 937 | –
14140 kPa, x1 = 0.086 | 939 | –
14270 kPa, x1 = 0.1484 | 980 | –
14460 kPa, x1 = 0.0481 | 903 | –
14760 kPa, x1 = 0.086 | 944 | –
15030 kPa, x1 = 0.1484 | 984 | –
15060 kPa, x1 = 0.068 | 946 | –
15240 kPa, x1 = 0.0481 | 911 | –
15490 kPa, x1 = 0.068 | 949 | –
15690 kPa, x1 = 0.1484 | 987 | –
16010 kPa, x1 = 0.068 | 953 | –
16350 kPa, x1 = 0.1484 | 990 | –
